Columns and labels:
[1] = target: T1, serine hydroxymethyltransferase 2 (SHMT2) (Homo sapiens, UniProt P34897); assay: microscale thermophoresis with labeled recombinant human SHMT2; type: binding
T1 sequence (P34897 30-504): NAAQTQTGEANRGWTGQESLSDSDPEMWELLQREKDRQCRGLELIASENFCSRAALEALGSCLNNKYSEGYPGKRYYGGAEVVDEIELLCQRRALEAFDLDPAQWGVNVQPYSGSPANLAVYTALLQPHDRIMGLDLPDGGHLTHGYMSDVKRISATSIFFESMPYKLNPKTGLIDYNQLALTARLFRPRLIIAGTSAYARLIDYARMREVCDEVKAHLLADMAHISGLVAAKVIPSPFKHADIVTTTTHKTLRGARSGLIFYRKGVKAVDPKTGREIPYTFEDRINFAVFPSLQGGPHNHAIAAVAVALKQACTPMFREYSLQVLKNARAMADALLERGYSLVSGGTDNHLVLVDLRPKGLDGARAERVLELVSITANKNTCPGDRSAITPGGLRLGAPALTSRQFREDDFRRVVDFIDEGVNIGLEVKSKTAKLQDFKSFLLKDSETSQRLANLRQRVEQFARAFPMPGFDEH

[2] = target: T2, phosphoglycerate dehydrogenase (PHGDH) (Homo sapiens, UniProt O43175)
T2 sequence (O43175 2-533): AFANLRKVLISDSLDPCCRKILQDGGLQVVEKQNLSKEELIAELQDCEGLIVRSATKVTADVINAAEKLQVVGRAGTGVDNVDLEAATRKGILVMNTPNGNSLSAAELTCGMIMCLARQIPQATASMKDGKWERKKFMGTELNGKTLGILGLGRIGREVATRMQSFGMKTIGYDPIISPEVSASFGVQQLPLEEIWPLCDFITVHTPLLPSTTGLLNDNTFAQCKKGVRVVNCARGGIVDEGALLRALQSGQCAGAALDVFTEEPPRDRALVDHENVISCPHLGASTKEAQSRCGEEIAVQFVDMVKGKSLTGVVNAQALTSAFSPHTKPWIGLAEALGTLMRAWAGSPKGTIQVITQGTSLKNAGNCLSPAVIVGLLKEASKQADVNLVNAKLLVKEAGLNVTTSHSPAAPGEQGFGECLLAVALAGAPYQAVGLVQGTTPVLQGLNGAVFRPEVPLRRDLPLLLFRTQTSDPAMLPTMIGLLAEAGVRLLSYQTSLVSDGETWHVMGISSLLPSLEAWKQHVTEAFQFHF

| SMILES | Kd [1] [µM] | IC50 [2] [µM] |
| --- | --- | --- |
| CN[C@H]1CC[C@@H](c2ccc(Cl)c(Cl)c2)c2ccccc21 [sertraline] | 13.1 | – |
| C[CH2][Hg][S]c1ccccc1C(=O)O [thimerosal] | – | 0.152 |

Reference: paper PMC7611204 (Molecular cancer therapeutics, 2020)
